Measured values taken from PMC8272561 (Bioorganic & medicinal chemistry letters, 2021).
Read-outs that look alike come from different tables or passages of the source.

What was measured:
[1] = test system: FMV-infected BE(2)-C cells; experiment: Antiviral assay in FMV-infected BE; type: cell-based
[2] = test system: WEEV genome replicon; settings: read-out: IC50, inhibition of luciferase expression in WEEV replicon assay; cited from earlier work
[3] = test system: WEEV genome replicon; experiment: organism not typed; type: cell-based; settings: for IC50: read-out: IC50, inhibition of luciferase expression in WEEV replicon assay

| SMILES | Activity in WEEV replicon assay, in words [3] | Loss of potency relative to lead 2 in WEEV replicon assay [3] | other results |
| --- | --- | --- | --- |
| O=C(NCCc1ccncc1)C1CCN(C(=O)c2cc3ccccc3n2Cc2ccc(Cl)cc2)CC1 [compound 2] | – | – | Enhancement of infected cell viability ([1]; 25 μM): two-fold enhancement; IC50 [2]: 0.53 ± 0.08 µM |
| O=C(c1cc2ccccc2n1Cc1ccc(Cl)cc1)N1CCC(/C=C/CCc2ccncc2)CC1 [compound 17] | lost all activity | – | IC50 [3]: > 50 µM |
| O=C(c1cc2ccccc2n1Cc1ccc(Cl)cc1)N1CCC(/C=C\CCc2ccncc2)CC1 [compound 18] | lost all activity | – | IC50 [3]: > 50 µM |
| O=C(NCCc1ccncc1)C1=CCN(C(=O)c2cc3ccccc3n2Cc2ccc(Cl)cc2)CC1 [compound 22] | – | ~10 fold | – |
| CC1(C(=O)NCCc2ccncc2)CCN(C(=O)c2cc3ccccc3n2Cc2ccc(Cl)cc2)CC1 [compound 23] | lost all activity | – | – |
| O=C(NCCc1ccncc1)[C@H]1[C@@H]2CCN(C(=O)c3cc4ccccc4n3Cc3ccc(Cl)cc3)C[C@@H]21 [compound 26] | – | over 20 fold | – |
| O=C(NCCc1ccncc1)C1CC2(C1)CN(C(=O)c1cc3ccccc3n1Cc1ccc(Cl)cc1)C2 [compound 28] | – | over 20 fold | – |
| O=C(NCCc1ccncc1)C1CCCN(C(=O)c2cc3ccccc3n2Cc2ccc(Cl)cc2)CC1 (centres unmarked) [compound 29] | – | – | Improvement in infected cell viability versus negative control ([1]; 5 μM): nearly two-fold improvement |
